Conditions: [M+H]+; instrument: DT; stepped-field

collision cross section (N2) | SMILES
281.67 Å² | CCCCC/C=C\C/C=C\C/C=C\CCCCCCC(=O)O[C@H](COC(=O)CCCCCCC/C=C\C/C=C\CCCCC)COP(=O)(O)OC[C@H](N)C(=O)O [PS(38:05)]
275.13 Å² | CCCCCC/C=C\CCCCCCCC(=O)OC[C@H](COP(=O)(O)OCCN)OC(=O)CCCCCCCCC/C=C\CCCCCCCC [PE(36:02)]
301.43 Å² | CCCCCCCCCCCCC=CC[C@@H](O)[C@H](COP(=O)([O-])OCC[N+](C)(C)C)NC(=O)CC=CCCCCCCCCCCCCCCCCCCCC [SM(42:02)]
293.87 Å² | CCCCCCCCCCCCC=CC[C@@H](O)[C@H](CO[C@@H]1O[C@H](CO)[C@@H](O)C(O)C1O)NC(=O)CCCCCCCCCCCCCCCCCCCCC (some centres undefined) [GlcCer(40:01)]
275.18 Å² | CCCCCCCCCCCCC=CC[C@@H](O)[C@H](CO)NC(=O)CC=CCC=CCCCCCCCCCCCCCCCCC [Cer(42:03)]
282.43 Å² | CCCCCCCCCCCCC=CC[C@@H](O)[C@H](CO[C@@H]1O[C@H](CO)[C@@H](O)C(O)C1O)NC(=O)CCCCCCCCCCCCCCCCC (some centres undefined) [GlcCer(36:01)]

Same assay, conditions: [M+K]+; instrument: DT; stepped-field

collision cross section (N2) | SMILES
291.12 Å² | CC/C=C\C/C=C\C/C=C\C/C=C\C/C=C\C/C=C\CCC(=O)O[C@H](COC(=O)CCCCCCCCC/C=C\CCCCCCCC)COP(=O)(O)OCCN [PE(42:07)]
286.6 Å² | CCCCC/C=C\C/C=C\C/C=C\CCCCCCC(=O)O[C@H](COC(=O)CCCCCCC/C=C\C/C=C\CCCCC)COP(=O)(O)OC[C@H](N)C(=O)O [PS(38:05)]
277.37 Å² | CCCCCCC/C=C\CCCCCCCC(=O)O[C@H](COC(=O)CCCCCCC/C=C\CCCCCCCC)COP(=O)(O)OCCN [PE(35:02)]
280.72 Å² | CCCCCC/C=C\CCCCCCCC(=O)OC[C@H](COP(=O)(O)OCCN)OC(=O)CCCCCCCCC/C=C\CCCCCCCC [PE(36:02)]

Same assay, conditions: [M+Na-H2O]+; instrument: DT; stepped-field

collision cross section (N2) | SMILES
301.19 Å² | CCCCCCCCCCCCC=CC[C@@H](O)[C@H](COP(=O)([O-])OCC[N+](C)(C)C)NC(=O)CC=CCCCCCCCCCCCCCCCCCCCC [SM(42:02)]

Same assay, conditions: [M+Na]+; instrument: DT; stepped-field

collision cross section (N2) | SMILES
302.4 Å² | CCCCCCCCCCCCC=CC[C@@H](O)[C@H](CO[C@@H]1O[C@H](CO)[C@@H](O)C(O)C1O)NC(=O)CC=CCCCCCCCCCCCCCCCCCCCCC (some centres undefined) [GlcCer(43:02)]
304.66 Å² | CCCCCCCCCCCCC=CC[C@@H](O)[C@H](COP(=O)([O-])OCC[N+](C)(C)C)NC(=O)CC=CCC=CCCCCCCCCCCCCCCCCCCC [SM(44:03)]
276.54 Å² | CCCCC/C=C\C/C=C\CCCCCCCCCC(=O)O[C@H](COC(=O)CCCCCCC/C=C\C/C=C\CCCCC)COP(=O)(O)O [PA(38:04)]
307.86 Å² | CCCCCCCCCCCCC=CC[C@@H](O)[C@H](COP(=O)([O-])OCC[N+](C)(C)C)NC(=O)CCCCCCCCCCCCCCCCCCCCCCCCC [SM(44:01)]
280.15 Å² | CCCCC/C=C\C/C=C\CCCCCCCC(=O)OC[C@H](COP(=O)(O)OCCN)OC(=O)CCCCCCC/C=C\CCCCCCCCC [PE(37:03)]
285.81 Å² | CCCCC/C=C\C/C=C\CCCCCCCCCCCC(=O)O[C@H](COC(=O)CCCCCCCCCCCC)COP(=O)([O-])OCC[N+](C)(C)C [PC(35:02)]
294.58 Å² | CCCCCCCCCCCCC=CC[C@@H](O)[C@H](COP(=O)([O-])OCC[N+](C)(C)C)NC(=O)CCCCCCCCCCCCCCCCCCCC [SM(39:01)]
285.93 Å² | CCCCCCCC/C=C\CCCCCCCCCCCC(=O)O[C@H](COC(=O)CCCCCCCCCCCCCCC)COP(=O)(O)OCCN [PE(38:01)]
292.09 Å² | CCCCCCCCCCCCC=CC[C@@H](O)[C@H](CO[C@@H]1O[C@H](CO)[C@@H](O)C(O)C1O)NC(=O)CC=CCCCCCCCCCCCCCCCCCC (some centres undefined) [GlcCer(40:02)]
294.42 Å² | CC/C=C/C=C\C=C/C=C\C=C/C=C\CCCCCCCC(=O)O[C@H](COC(=O)CCCCCCCCCCCCCCCCC)COP(=O)([O-])OCC[N+](C)(C)C [PC(40:06)]
303.93 Å² | CCCCCCCCCCCCC=CC[C@@H](O)[C@H](CO[C@@H]1O[C@H](CO)[C@@H](O)C(O)C1O)NC(=O)CC=CCC=CCCCCCCCCCCCCCCCCCCC (some centres undefined) [GlcCer(44:03)]
291.27 Å² | CCCCCCCCCCCCCCCCCCCC(=O)N[C@@H](CO[C@@H]1O[C@H](CO)[C@@H](O)C(O)C1O)[C@H](O)CCCCCCCCCCCCCCC (some centres undefined) [GlcCer(38:00)]
275.61 Å² | CCCCCCC/C=C\CCCCCCCC(=O)O[C@H](COC(=O)CCCCCCC/C=C\CCCCCCCC)COP(=O)(O)OCCN [PE(35:02)]
280.92 Å² | CCCCCCCCCCCCCCCC(=O)N[C@@H](CO[C@@H]1O[C@H](CO)[C@@H](O)C(O)C1O)[C@H](O)CCCCCCCCCCCCCCC (some centres undefined) [GlcCer(34:00)]
270.85 Å² | CCCCC/C=C\C/C=C\C/C=C\CCCCC(=O)O[C@H](COCCCCCCCCCCCCCCCC)COP(=O)(O)OCCN [PE(o34:03)]
279.88 Å² | CCCCCC/C=C\CCCCCCCC(=O)OC[C@H](COP(=O)(O)OCCN)OC(=O)CCCCCCCCC/C=C\CCCCCCCC [PE(36:02)]
300.53 Å² | CCCCCCCCCCCCC=CC[C@@H](O)[C@H](COP(=O)([O-])OCC[N+](C)(C)C)NC(=O)CC=CCCCCCCCCCCCCCCCCCCCC [SM(42:02)]
296.15 Å² | CCCCCCCCCCCCC=CC[C@@H](O)[C@H](CO[C@@H]1O[C@H](CO)[C@@H](O)C(O)C1O)NC(=O)CCCCCCCCCCCCCCCCCCCCC (some centres undefined) [GlcCer(40:01)]
280.61 Å² | CCCCCCCCCCCCC=CC[C@@H](O)[C@H](COP(=O)([O-])OCC[N+](C)(C)C)NC(=O)CCCCCCCCCCCCCCCC [SM(35:01)]
287.43 Å² | CCCCCCCCCCCCC=CC[C@@H](O)[C@H](CO[C@@H]1O[C@H](CO)[C@@H](O)C(O)C1O)NC(=O)CCCCCCCCCCCCCCCCCC (some centres undefined) [GlcCer(37:01)]
284 Å² | CCCCCCCCCCCCC=CC[C@@H](O)[C@H](CO[C@@H]1O[C@H](CO)[C@@H](O)C(O)C1O)NC(=O)CCCCCCCCCCCCCCCCC (some centres undefined) [GlcCer(36:01)]

Same assay, conditions: [M-H]-; instrument: DT; stepped-field

collision cross section (N2) | SMILES
284.03 Å² | CCCCCCCCCCCCCCCCCC(=O)OC[C@H](COP(=O)(O)OC[C@H](N)C(=O)O)OC(=O)CCCCCCCCCCCCCCCCC [PS(36:00)]
274.96 Å² | CCCCCCCCCCCCCCCCCCCCC(=O)OC[C@H](COP(=O)(O)OCCN)OC(=O)CCCCCCCCCCCCCC [PE(36:00)]
277.01 Å² | CCCCC/C=C\C/C=C\CCCCCCCCCC(=O)O[C@H](COC(=O)CCCCCCC/C=C\CCCCCCCC)COP(=O)(O)OCCN [PE(38:03)]
283.69 Å² | CCCCC/C=C\C/C=C\C/C=C\CCCCCCC(=O)O[C@H](COC(=O)CCCCCCC/C=C\C/C=C\CCCCC)COP(=O)(O)OC[C@H](N)C(=O)O [PS(38:05)]
291.98 Å² | CCCCC/C=C\C/C=C\C/C=C\C/C=C\CCCCCC(=O)O[C@H](COC(=O)CCC/C=C\C/C=C\C/C=C\C/C=C\CCCCC)COP(=O)(O)OC[C@H](N)C(=O)O [PS(42:08)]
272.07 Å² | CCCCCC/C=C\CCCCCCCC(=O)OC[C@H](COP(=O)(O)OCCN)OC(=O)CCCCCCCCC/C=C\CCCCCCCC [PE(36:02)]
273.81 Å² | CC/C=C\C/C=C\C/C=C\C/C=C\CCCCC(=O)OC[C@H](COP(=O)(O)OCCN)OC(=O)CCCCCCCCC/C=C\C/C=C\CCCCC [PE(38:06)]
